We go through 47 compounds from patent publication US10301317B2, “Inhibitors of ERK and methods of use” (Kura Oncology, Inc., priority 2013, dated 2019).

Each structure is given as a SMILES string.

The subject of this assay is phospho-p90 RSK (RSK1 Thr359/Ser363) in A375 (Braf V600E) cells. The assay is described as follows: Phospho-p90 RSK ELISA using A375 (Braf V600E) cells. In kind it is cell-based. The conditions noted are these: Homo sapiens, A-375, 2 hours compound treatment, read-out: Cellular Phospho-p90RSK IC50. Here is the method: In preparation for the assay, an ELISA plate with the pre-coated goat anti-mouse antibody (Thermo Scientific) was treated with a mouse anti-human RSK1 antibody (monoclonal, Invitrogen) at 1:800 dilution (150 ng/well) in PBS, and the plate was placed on a plate shaker at 4° C. overnight. […] After two […] of the compound treatment, the supernatant was removed from the cell plate, and cells were lysed in 100 μl per well of cell lysis buffer (Cell Signaling Technologies) containing phosphatase and protease inhibitors (Cell Signaling Technologies) on a plate shaker at 4° C. for 20 minutes. The ELISA plate was washed four times with ELISA wash buffer (Thermo Scientific) prior to addition of 100 μL cell lysate. The lysate was incubated on the ELISA plate with gentle shaking at room temperature for 2 hours. The contents of the wells were removed, and the ELISA plate was washed four times with wash buffer, and incubated with 100 μL per well of anti-phospho-RSK1 (Thr359/Ser363) rabbit monoclonal antibody (Millipore) at dilution of 1:1000 in StartingBlock buffer (Thermo Scientific) on a plate shaker at room temperature for 1 hour. The contents of the wells were removed, the ELISA plate was washed four times with wash buffer, and was incubated with 100 μL per well of goat anti-rabbit HRP (Thermo Scientific) at dilution of 1:3000 in StartingBlock buffer (Thermo Scientific) on a plate shaker at room temperature for 1 hour. The contents of the wells were removed, the ELISA plate was washed four times with wash buffer, and then incubated with 100 μL per well of TMB substrate solution (Thermo Scientific) on a plate shaker at room temperature for 20 minutes. Finally, 100 μL of TMB stop solution (Thermo Scientific) was added to each well and the absorbance is measured at 450 nm on a Tecan plate reader.
For orientation: In an ELISA, binding on a coated surface is turned into a signal by an enzyme label.
Regarding `COc1ncc(-c2n[nH]c3cc4[nH]c(=O)c(C(C)c5cccc(Cl)c5)cc4cc23)cn1` (centres unmarked) [Example 129], the IC50 (usually the concentration at which inhibition is half-maximal) lay within 250 to 1000 nM.

Take `Cc1ccc(CN2CCC[C@@H](N3Cc4cc5c(-c6ccnc(C)c6)n[nH]c5cc4NC3=O)C2)cn1` [Example 131]: the IC50 was greater than 1000 nM.

As for `Cc1cc(-c2n[nH]c3cc4c(cc23)CN([C@@H]2CCCN(Cc3cnn(C)c3)C2)C(=O)N4)ccn1` [Example 133], the IC50 is greater than 1000 nM.

As to `Cc1cc(-c2n[nH]c3cc4c(cc23)CN([C@@H]2CCCN(CC3CCC3)C2)C(=O)N4)ccn1` [Example 137], the IC50 lay in the range of 250 to 1000 nM.

For `Cc1cc(-c2n[nH]c3cc4c(cc23)CN([C@@H]2CCCN(CC3CC5CCC3C5)C2)C(=O)N4)ccn1` (some centres unmarked) [Example 142], the IC50 is no more than 250 nM.

`Cc1cc(-c2n[nH]c3cc4c(cc23)CN([C@@H]2CCCN(CCc3ccccc3)C2)C(=O)N4)ccn1` [Example 145]: the IC50 fell in the range of 250 to 1000 nM.

For the compound `COc1ncccc1CN1CCC[C@@H](N2Cc3cc4c(-c5ccnc(C)c5)n[nH]c4cc3NC2=O)C1` [Example 150], the IC50 was no more than 250 nM.

Turning to `Cc1cc(-c2n[nH]c3cc4c(cc23)CN([C@@H]2CCCN(CCC3CC3)C2)C(=O)N4)ccn1` [Example 155], the 50% inhibitory concentration (IC50) was 250 to 1000 nM.

For `Cc1cc(-c2n[nH]c3cc4c(cc23)CN(C2CCN(CCc3ccccc3)CC2)C(=O)N4)ccn1` [Example 157], the IC50 was greater than 1000 nM.

On to `Cc1cc(-c2n[nH]c3cc4c(cc23)CN([C@@H]2CCCN(Cc3ccc(Cl)cc3)C2)C(=O)N4)ccn1` [Example 159], for which the IC50 is 250 to 1000 nM.

For `Cc1cc(-c2n[nH]c3cc4[nH]c(=O)c(C(C)C5CCCCC5)cc4cc23)ccn1` (centres unmarked) [Example 160], the IC50 is greater than 1000 nM.

`Cc1cc(-c2n[nH]c3cc4c(cc23)CN([C@@H]2CCCN(CCc3cccc(Cl)c3)C2)C(=O)N4)ccn1` [Example 164]: the IC50 is greater than 1000 nM.

Regarding `Cc1cc(-c2n[nH]c3cc4c(cc23)CN([C@@H]2CCCN(Cc3cncnc3)C2)C(=O)N4)ccn1` [Example 166], the half-inhibitory concentration (IC50) is greater than 1000 nM.

On to `Cc1cc(-c2n[nH]c3cc4c(cc23)CN([C@@H]2CCCN(CCc3ccc(F)cc3)C2)C(=O)N4)ccn1` [Example 167], for which the 50% inhibitory concentration (IC50) is greater than 1000 nM.

With `Cc1cc(-c2n[nH]c3cc4c(cc23)CN([C@@H]2CCCN(Cc3ncccc3C)C2)C(=O)N4)ccn1` [Example 168], the IC50 lay in the range of 250 to 1000 nM.

Turning to `Cc1cc(-c2n[nH]c3cc4c(cc23)CN([C@@H]2CCCN(CCC(C)C)C2)C(=O)N4)ccn1` [Example 169], the IC50 was 250 to 1000 nM.

As to `Cc1cc(-c2n[nH]c3cc4c(cc23)CN([C@@H]2CCCN(Cc3cccnc3C)C2)C(=O)N4)ccn1` [Example 170], the IC50 is 250 to 1000 nM.

For `Cc1cc(-c2n[nH]c3cc4c(cc23)CN([C@@H]2CCCN(Cc3ccccn3)C2)C(=O)N4)ccn1` [Example 171], the IC50 is greater than 1000 nM.

Take `Cc1cc(-c2n[nH]c3cc4c(cc23)CN([C@@H]2CCCN(C(=O)c3ccccc3)C2)C(=O)N4)ccn1` [Example 172]: the IC50 was 250 to 1000 nM.

As for `Cc1cc(-c2n[nH]c3cc4c(cc23)CN(CCNCc2ccc(F)c(Cl)c2)C(=O)N4)ccn1` [Example 173], the IC50 was greater than 1000 nM.

Turning to `Cc1cc(-c2n[nH]c3cc4c(cc23)CN(CCNCc2ccc(F)cc2)C(=O)N4)ccn1` [Example 175], the IC50 was in the range of 250 to 1000 nM.

`Cc1cc(-c2n[nH]c3cc4c(cc23)CN(CCNCc2cccc(Cl)c2)C(=O)N4)ccn1` [Example 176]: the IC50 lay in the range of 250 to 1000 nM.

Take `Cc1cc(-c2n[nH]c3cc4c(cc23)CN([C@@H]2CCC[C@H](NCc3ccccc3)C2)C(=O)N4)ccn1` [Example 177]: the half-maximal inhibitory concentration (IC50) lay within 250 to 1000 nM.

As to `Cc1cc(-c2n[nH]c3cc4c(cc23)CN([C@@H]2CCCN(CC3(C)CC3)C2)C(=O)N4)ccn1` [Example 182], the IC50 is 250 to 1000 nM.

As for `Cc1cc(-c2n[nH]c3cc4c(cc23)CN([C@@H]2CCCN(Cc3cnccc3C)C2)C(=O)N4)ccn1` [Example 183], the IC50 was in the range of 250 to 1000 nM.

Take `Cc1cc(-c2n[nH]c3cc4c(cc23)CN([C@@H]2CCCN(Cc3cc(C(C)(C)C)no3)C2)C(=O)N4)ccn1` [Example 186]: the half-inhibitory concentration (IC50) is 250 to 1000 nM.

Regarding `Cc1cc(-c2n[nH]c3cc4c(cc23)CN([C@@H]2CCCN(Cc3cc(C5CC5)on3)C2)C(=O)N4)ccn1` [Example 188], the IC50 is no more than 250 nM.

With `Cc1cc(-c2n[nH]c3cc4c(cc23)CN(C2CN(CCC3CC3)C2)C(=O)N4)ccn1` [Example 189], the IC50 was greater than 1000 nM.

For the compound `Cc1cc(-c2n[nH]c3cc4c(cc23)CN(C2CN(Cc3ccccc3)C2)C(=O)N4)ccn1` [Example 191], the IC50 is 250 to 1000 nM.

Consider `Cc1cc(-c2n[nH]c3cc4c(cc23)CN(C2CN(CCc3ccccc3)C2)C(=O)N4)ccn1` [Example 192], for which the half-inhibitory concentration (IC50) was 250 to 1000 nM.

In the case of `Cc1cc(-c2n[nH]c3cc4c(cc23)CN([C@@H]2CCCN(C3CCCCC3)C2)C(=O)N4)ccn1` [Example 194], the IC50 fell in the range of 250 to 1000 nM.

`Cc1cc(-c2n[nH]c3cc4c(cc23)CN([C@@H]2CCCN(Cc3sc(C)nc3C)C2)C(=O)N4)ccn1` [Example 195]: the 50% inhibitory concentration (IC50) lay within 250 to 1000 nM.

As for `Cc1cc(-c2n[nH]c3cc4c(cc23)CN([C@@H]2CCCN(CC(=O)C(C)(C)C)C2)C(=O)N4)ccn1` [Example 203], the IC50 was in the range of 250 to 1000 nM.

Take `Cc1cc(-c2n[nH]c3cc4c(cc23)CN([C@@H]2CCN(CC3CCCC3)C2)C(=O)N4)ccn1` [Example 206]: the IC50 is greater than 1000 nM.

As to `Cc1cc(-c2n[nH]c3cc4c(cc23)CN([C@@H]2CCN(CCC(C)C)C2)C(=O)N4)ccn1` [Example 207], the IC50 is 250 to 1000 nM.

`Cc1cc(-c2n[nH]c3cc4c(cc23)CN(CC2CCCN(Cc3ccccc3)C2)C(=O)N4)ccn1` (centres unmarked) [Example 208]: the IC50 is greater than 1000 nM.

For `Cc1cc(-c2n[nH]c3cc4c(cc23)CN([C@@H]2CCCN(CC(=O)C(C)C)C2)C(=O)N4)ccn1` [Example 209], the IC50 is 250 to 1000 nM.

As to `Cc1cc(-c2n[nH]c3cc4c(cc23)CN([C@@H]2CCCN(C3CCC3)C2)C(=O)N4)ccn1` [Example 210], the half-inhibitory concentration (IC50) was greater than 1000 nM.

Turning to `Cc1cc(-c2n[nH]c3cc4c(cc23)CN([C@@H]2CCCN(C3CCCC3)C2)C(=O)N4)ccn1` [Example 215], the IC50 lay in the range of 250 to 1000 nM.

Regarding `Cc1cc(-c2n[nH]c3cc4c(cc23)CN(Cc2ccccc2Cl)C(=O)N4)ccn1` [Example 217], the IC50 is no more than 250 nM.

Turning to `Cc1cc(-c2n[nH]c3cc4c(cc23)CN(Cc2ccccc2C(F)(F)F)C(=O)N4)ccn1` [Example 218], the 50% inhibitory concentration (IC50) lay within 250 to 1000 nM.

Take `Cc1cc(-c2n[nH]c3cc4c(cc23)CN(C2CCOC(C)(C)C2)C(=O)N4)ccn1` (centres unmarked) [Example 219]: the IC50 was 250 to 1000 nM.

Consider `Cc1cc(-c2n[nH]c3cc4c(cc23)CN(CCC2CCOCC2)C(=O)N4)ccn1` [Example 220], for which the concentration for half-maximal inhibition (IC50) is no more than 250 nM.

Regarding `CC(C)c1cc(-c2n[nH]c3cc4c(cc23)CN(Cc2cccc(Cl)c2)C(=O)N4)ccn1` [Example 230], the IC50 fell in the range of 250 to 1000 nM.

`Cc1cc(-c2n[nH]c3cc4c(cc23)CN(C2CCC(=O)N(Cc3ccccc3)C2)C(=O)N4)ccn1` (centres unmarked) [Example 232]: the IC50 was 250 to 1000 nM.

For `Cc1cc(-c2n[nH]c3cc4c(cc23)CN(Cc2ccc(C(F)(F)F)cc2)C(=O)N4)cc(C)n1` [Example 233], the IC50 is no more than 250 nM.

On to `Cn1nccc1-c1n[nH]c2cc3c(cc12)CN(Cc1cccc(Cl)c1)C(=O)N3` [Example 235], for which the IC50 is greater than 1000 nM.
